According to EP4755877A1, “MODIFIED FLAVONE COMPOUNDS AND USE THEREOF” (Suzhou Glenkol Pharma Technology Co., Ltd., priority 2023, dated 2025):
Where two headings read alike, the source gives them in different places.

Columns and labels:
[1] = Pharmacokinetics in rats after intravenous and oral gavage dosing, plasma LC-MS/MS; assay type: in vivo; details: rat
Experimental: Preparation of intravenous bolus administration formulations: A graduation line for the final volume was marked on a clean and dry container. An appropriate amount of the test sample was weighed and added to the container to prepare a solution with a final concentration of 1 mg/mL.
Preparation of oral gavage administration formulations: A graduation line for the final volume was marked on a clean and dry container. An appropriate amount of the test sample was weighed and added to the container to prepare a solution with a final concentration of 3 mg/mL.
After preparation, the formulations were stored at room temperature and used on the day of preparation. A total of 2 groups of rats were set up, with […] per group (half male and half female). The compounds were administered to the rats at a dose of 1 mg/kg via intravenous injection and 15 mg/kg via oral gavage, respectively. All animals were allowed free access to food and water.
Intravenous administration: Before administration (0 h) and at 0.083, 0.167, 0.5, 1.0, 2.0, 4.0, 6.0, and 24 h after administration, 0.2 mL of blood samples were collected from the jugular vein and transferred to anticoagulant tubes (pre-cooled in advance for at least 5 minutes). The tubes were gently inverted several times to fully mix the blood with the anticoagulant. The blood samples were centrifuged at 4 °C for 10 minutes to separate the plasma. 95 µ L of plasma was collected and transferred to a centrifuge tube, which was stored in a refrigerator at below -80 °C until analysis.
Single oral gavage administration: Before administration (0 h) and at 0.167, 0.5, 1.0, 2.0, 4.0, 6.0, and 24 h after administration, 0.2 mL of blood samples were collected from the jugular vein and transferred to anticoagulant tubes. The sample processing method was the same as described above.
The concentration of the compounds in plasma was determined by LC-MS/MS, and data acquisition was performed using Analyst 1.6.3 software (AB Sciex). The pharmacokinetic parameters of the rats after administration were calculated using the non-compartmental model in Phoenix WinNonlin software.
7,8-dihydroxyflavone served as the control drug for comparing the pharmacokinetic characteristics of various compound. Table 3: PK parameters of various compound

PC-12 cells = test: Glutamate-induced excitotoxic death of PC-12 cells, survival by propidium iodide/Hoechst staining; assay type: cell-based, rat; details: for Enhancement of Cell Survival Rate: PC-12 cells, glutamate-induced death, compound at 100 nM; for EC50: Rattus norvegicus, promotion of PC-12 survival under glutamate stimulation, 30 min pretreatment, 1 pM-100 µM, 24 h glutamate
Experimental: PC-12 cells (a […] cell line derived from rat adrenal medulla) were cultured in DMEM/F12 complete medium until 80-90% confluency. After being digested, collected, and resuspended, the cells were seeded into 24-well plates pre-coated with coverslips at a density of 5×10^4 cells per well. Following 26 hours of cell culture, glutamate-induced excitotoxic cell death modeling was performed. The modeling method was as follows: an appropriate amount of glutamate was weighed and dissolved in DMEM/F12 medium to prepare a stock solution; after filtration, the stock solution was diluted with the same medium, and the cells were administered with the diluted solution by medium replacement. After administration, the cells were further incubated for 24 hours.
Prior to glutamate modeling, cells incubated in the previous step were pretreated with small-molecule compounds listed in Table 1 at concentrations of 1 pM, 10 pM, 100 pM, 1 nM, 10 nM, 100 nM, 1 µM, 10 µM, and 100 µM for 30 minutes, followed by glutamate stimulation.
The cells treated with the compounds were stained with propidium iodide to assess cell death. After the medium was discarded, the cells were washed with PBS. Subsequently, propidium iodide/Hoechst was added. Following incubation for 30 minutes, the staining solution was removed, and the cells were washed with PBS again before being fixed and mounted on slides. Image acquisition was performed under a fluorescence microscope. The propidium iodide-positive cells and Hoechst-positive cells in the collected images were counted to calculate the cell survival rate. The survival rate was calculated using the formula: Cell survival rate = (1 - Number of Propidium Iodide-positive cells / Number of Hoechst-positive cells) × 100%. The gradient concentrations of the small molecule compounds and the corresponding normalized survival rates were imported into Prism software, and EC50 values were calculated using a non-linear regression model. 7,8-dihydroxyflavone was used as the positive control drug. Table 1: Dose-response relationship study of various compounds in promoting PC-12 neurocytes survival
Based on the aforementioned dose-response relationship study of the compounds, the inhibitory effects of different small molecule compounds on glutamate-induced excitotoxic death of PC-12 cells were further compared at the same dose (100 nM). Table 2: Study on the promoting effects of various compounds on PC-12 neurocytes survival

[2] = in vivo, SD rats, plasma, 15 mg/kg oral gavage / 1 mg/kg intravenous, table does not state the route
[3] = in vivo, SD rats, plasma, 15 mg/kg oral gavage / 1 mg/kg intravenous, table does not state the route, read-out: t1/2 (converted)
[4] = in vivo, SD rats, 15 mg/kg oral gavage vs 1 mg/kg intravenous, read-out: Oral Bioavailability F (%)
[5] = both sexes, Sprague-Dawley, SD rats, plasma, 15 mg/kg oral gavage / 1 mg/kg intravenous, table does not state the route

Row | SMILES | AUC(0-t) [1, 2] [µM·h] | Cmax [1, 2] [nM] | half-life [1, 3] [h] | bioavailability [1, 4] [%] | Enhancement of Cell Survival Rate (PC-12 cells) [%] | EC50 (PC-12 cells) [nM] | also measured
1 | O=c1cc(C2CCNCC2)oc2c(F)c(F)ccc12 [Compound S30] | 10.3 | 1260 | 11.4 | 112 | 83.78 |  | 
2 | O=c1cc(C2CCNCC2)oc2c(O[C@@H]3O[C@H](CO)[C@@H](O)[C@H](O)[C@H]3O)c(O)ccc12 [Compound S28] |  |  |  |  | 43.06 |  | half-life ([1]; in vivo): 16.7 h; bioavailability ([1]; in vivo, po, 15 mg/kg): 2.72%
3 | O=c1cc(-c2ccccc2)oc2c(F)c(O)ccc12 [Compound S1] | 0.181 | 94.9 |  |  |  | 0.012 | 
4 | O=c1cc(C2CCNCC2)oc2c(O[C@@H]3OC[C@@H](O)[C@H](O)[C@H]3O)c(O)ccc12 [Compound S27] |  |  |  |  |  |  | half-life ([1]; in vivo): 1.77 h
5 | O=C(O)[C@H]1O[C@@H](Oc2c(O)ccc3c(=O)cc(-c4ccccc4)oc23)[C@H](O)[C@@H](O)[C@@H]1O [Compound S7] | 2.36 | 245 |  | 66.9 |  | 0.0111 | 
6 | COc1ccc2c(=O)cc(C3CCNCC3)oc2c1O [Compound S29] | 0.331 | 91.3 | 2.57 | 3.38 | 73.51 |  | 
7 | O=c1cc(-c2ccccc2)oc2c(O)c(O)ccc12 [7,8-dihydroxyflavone, 7,8-dihydroxyflavone, reference compound] |  |  |  |  | 33.58 | 0.159 | bioavailability ([1]; both sexes, Sprague-Dawley, plasma, SD rats, 15 mg/kg oral gavage vs 1 mg/kg intravenous, read-out: Oral Bioavailability F (%)): 1.9%; AUC(0-t) [1, 5]: 0.1 µM·h; Cmax [1, 5]: 75.1 nM; half-life ([1]; both sexes, Sprague-Dawley, SD rats, plasma, 15 mg/kg oral gavage / 1 mg/kg intravenous, table does not state the route, read-out: t1/2 (converted)): 3.32 h
8 | [2H]c1c([2H])c([2H])c(-c2cc(=O)c3ccc(O[C@@H]4O[C@H](C(=O)O)[C@@H](O)[C@H](O)[C@H]4O)c(O)c3o2)c([2H])c1[2H] [Compound S25] |  | 3590 | 5.38 | 52 |  |  | 
9 | O=c1cc(C2CCNCC2)oc2c(F)c(O)ccc12 [Compound S26] | 0.252 | 68.1 | 4.54 |  |  |  | 
10 | O=c1cc(C2CCNCC2)oc2c(O)c(O)ccc12 [Compound S12] | 0.151 | 113 | 1.84 | 1.9 |  | < 0.001 | 
